Test results taken from publication PMC8180025, “Antibacterial, antifungal and antioxidant activities of whole plant chemical constituents of Rumex abyssinicus” (BMC Complementary Medicine and Therapies, 2021).
≈ marks a conversion by molar mass, not a printed value. Where “and” joins values, the source holds several entries; their conditions need not be identical. Identical values can stand only once. Marks after values point to notes of the source that are not given here.

Columns and labels:
[1] = test system: bacterial and yeast species; experiment: Checkerboard combination with antibiotics, whole panel; assay type: cell-based; details: overall statement over the microorganisms tested
Protocol: (§1) The inoculum was initially prepared as described above. The test microorganisms were inoculated into a 96-well microtitre plates and a serial dilution of two antimicrobial agents: antibiotic and MeOH extract, compound 2 or 4. Each well consisted of unique combination of test sample and antibiotic concentrations. The plates were then incubated for 24 h at 37 °C. The analyses were performed in triplicates. And the antimicrobial agents interactions were evaluated by calculating the fractional inhibitory concentration (FIC) indices. The FIC is defined as follows: MIC of antibiotic tested in combination/MIC of antibiotic tested alone + MIC of extract/compound tested in combination/MIC of extract/compound tested alone. The FIC index is interpreted as FIC ≤ 0.5: synergistic effect, 0.5 < FIC ≤1: additive effect, 1 < FIC ≤2: indifferent effect, and FIC > 2.0: antagonistic effect.

[2] = test system: Pseudomonas aeruginosa ATCC27853; experiment: Broth microdilution MIC/MMC
[3] = test system: methicillin resistant S. aureus MRSA03; experiment: Broth microdilution MIC/MMC
MRSA03 = experiment: Checkerboard combination with antibiotic (FIC); assay type: cell-based, Staphylococcus aureus; details: combined with ciprofloxacin
[4] = test system: respiratory chain dehydrogenase in S. flexneri; assay type: cell-based, Shigella flexneri; details: 0, 30, 60 min
MSSA01 = experiment: Checkerboard combination with antibiotic (FIC); assay type: cell-based, Staphylococcus aureus; details: combined with ciprofloxacin
Shigella flexneri SDINT = experiment: Broth microdilution MIC/MMC
[5] = DPPH free radical scavenging assay; assay type: biochemical; details: mean ± SD, triplicate
Protocol: The free radical scavenging activity of extracts and compounds was evaluated according to described methods. The EC50 (μg/ml), which is the amount of sample necessary to inhibit by 50% the absorbance of free radical DPPH was calculated. Vitamin C was used as a standard control. All the analyses were carried out in triplicate.

S. flexneri [6] = experiment: Cell membrane leakage assay (260 and 280 nm absorbing material); assay type: cell-based, Shigella flexneri; details: at concentrations equal to or two times MIC, concentration dependent
Protocol: (§2) The alteration of cell membrane of P. aeruginosa and S. flexneri was evaluated by measuring the optical densities at 260 nm and 280 nm of the bacterial suspensions in the presence and absence of MeOH extract and compound 2 using the method described by Karsha and Lakshmi.

S. flexneri [7] = experiment: Sugar leakage through membrane of bacteria; assay type: cell-based, Shigella flexneri; details: ½ MIC, 2 MIC, 12 h
C. neoformans = experiment: Checkerboard combination with antibiotic (FIC); assay type: cell-based, Cryptococcus neoformans; details: combined with fluconazole
[8] = test system: Candida albicans ATCC10231; experiment: Broth microdilution MIC/MMC
S. aureus = experiment: Checkerboard combination with antibiotic (FIC); assay type: cell-based, Staphylococcus aureus; details: combined with ciprofloxacin
C. albicans = experiment: Checkerboard combination with antibiotic (FIC); assay type: cell-based, Candida albicans; details: combined with fluconazole
[9] = test system: methicillin sensitive S. aureus MSSA01; experiment: Broth microdilution MIC/MMC
[10] = test system: respiratory chain dehydrogenase in P. aeruginosa; experiment: Respiratory chain dehydrogenase enzyme activity (TTC reduction); assay type: cell-based, Pseudomonas aeruginosa; details: increasing concentration, 0, 30, 60 min
[11] = test system: Staphylococcus aureus ATCC25923; experiment: Broth microdilution MIC/MMC
S. flexneri [12] = experiment: Checkerboard combination with antibiotic (FIC); assay type: cell-based, Shigella flexneri; details: combined with ciprofloxacin
Protocol: as §1

P. aeruginosa [13] = experiment: Sugar leakage through membrane of bacteria; details: ½ MIC, 2 MIC, 12 h
Protocol: After incubation, the mixture was centrifuged at 12,000 rpm and the supernatant was collected. The concentration of reducing sugar was determined spectrophotometrically at 550 nm using 3–5 dinitro-salicylic acid (DNS) [29].

[14] = Gallic acid equivalent antioxidant capacity (GEAC) assay; assay type: biochemical; details: laccase/ABTS, 420 nm after 240 s; mean ± SD
Protocol: The GEAC test was done as previously described with slight modifications. In a quartz cuvette, to 950 μL acetate buffer (pH =5.0, 100 mM), the following were added: 20 μL laccase (1 mM stock solution), 20 μL test sample, 10 μL ABTS (2,2′-azinobis(3-ethylbenzothiazoline-6-sulfonic acid) (74 mM stock solution). The purification of laccase from Sclerotinia sclerotiorum was done according to the protocol described. The sample concentrations in the assay mixture were 800, 400, 200, 100, 10 μg/mL for the extracts and 200, 100, 50, 25, 12.5, 6.25, 3.125, 1.56 μg/mL for the isolated compounds. The content of the generated ABTS^●+ radical was measured at 420 nm after 240 s reaction time and was converted to gallic acid equivalents by the use of a calibration curve (Pearson’s correlation coefficient: r = 0.997) constructed with 0, 4, 10, 14, 28, 56, 84 μM gallic acid standards rather than Trolox. Experiments were done in triplicate.

P. aeruginosa [15] = experiment: Cell membrane leakage assay (260 and 280 nm absorbing material); assay type: cell-based, Pseudomonas aeruginosa; details: at concentrations equal to or two times MIC, concentration dependent
Protocol: as §2

[16] = test system: Cryptococcus neoformans H99; experiment: Broth microdilution MIC/MMC
P. aeruginosa [17] = experiment: Checkerboard combination with antibiotic (FIC); assay type: cell-based, Pseudomonas aeruginosa; details: combined with ciprofloxacin
red blood cells (RBCs) = assay type: cell-based, Wistar rats (Rattus novergicus)
Protocol: Three male Wistar rats (Rattus novergicus), aged 10–12 weeks and weighing 230 to 240 g were used. These animals were bred in the animal house of the University of Dschang, Cameroon. Efforts were also made to minimize animal suffering and to reduce the number of animal used in the experiment. All the rats were anaesthesized via intraperitoneal injection of the mixture of ketamine (50 mg/ kg body weight, BW) and xylazine (10 mg /kg BW), in a dose that is commonly used for operation purposes. Subsequently the unconscious animals were decapitated swiftly and the whole blood (10 mL) was collected by cardiac puncture into a conical tube containing Ethylene Diamine Tetra Acetic Acid (EDTA) as an anticoagulant. Erythrocytes were obtained by centrifugation at room temperature for 10 min at 1000 x g and were washed three times in PBS buffer. The cytotoxicity was evaluated as previously described.
The cytotoxic activity of extracts and isolated compounds from R. abyssinicus was studied by assessing the haemolytic activity against red blood cells (RBCs) using Triton X-100 as a positive control.

COc1cc(O)c2c(c1)C(=O)c1cc(C)cc(O)c1C2=O [Compound 2, Physcion]
effect of the association with ciprofloxacin (bacteria) / fluconazole (yeasts) [1]: synergistic
MMC/MIC ([2]; P. aeruginosa): 2
MMC ([2]; P. aeruginosa, sub-culturing after broth microdilution): 16 µg/mL
MIC ([2]; Pseudomonas aeruginosa, ATCC27853): 8 µg/mL (≈ 28.1 µM)
MMC/MIC ([3]; MRSA03): 2
MMC ([3]; MRSA03, sub-culturing after broth microdilution): 32 µg/mL
MIC ([3]; Staphylococcus aureus): 16 µg/mL (≈ 56.3 µM)
FIC (fractional inhibitory concentration index) (MRSA03): 0.5625
FICEx / FIC2 / FIC5 (MIC of extract/compound tested in combination/MIC of extract/compound tested alone) (MRSA03): 0.5
FICA (MIC of antibiotic tested in combination/MIC of antibiotic tested alone) (MRSA03; 24 h at 37 °C): 0.0625
respiratory chain dehydrogenase activity (TPF formed) [4]: significant decrease in the TPF formed
FIC (fractional inhibitory concentration index) (MSSA01): 0.5625
FICEx / FIC2 / FIC5 (MIC of extract/compound tested in combination/MIC of extract/compound tested alone) (MSSA01): 0.5
FICA (MIC of antibiotic tested in combination/MIC of antibiotic tested alone) (MSSA01; 24 h at 37 °C): 0.0625
MMC/MIC (Shigella flexneri SDINT; S. flexneri): 2
MMC (Shigella flexneri SDINT; S. flexneri, sub-culturing after broth microdilution): 16 µg/mL
MIC (Shigella flexneri SDINT; Shigella flexneri): 8 µg/mL (≈ 28.1 µM)
DPPH free radical scavenging activity (EC50) [5]: 3.08 ± 0.44^e μg/mL
leakage of biological material absorbing at 260 and 280 nm (S. flexneri [6]): induced leakage
appearance of reducing sugar in the bacterial culture suspension (S. flexneri [7]): increased
Interpretation (of FIC index) (C. neoformans): Synergistic (FIC ≤ 0.5: synergistic effect)
FIC (fractional inhibitory concentration index) (C. neoformans; checkerboard): 0.125
FICEx / FIC2 / FIC5 (MIC of extract/compound tested in combination/MIC of extract/compound tested alone) (C. neoformans; checkerboard): 0.0625
FICA (MIC of antibiotic tested in combination/MIC of antibiotic tested alone) (C. neoformans; checkerboard, 24 h at 37 °C): 0.0625
MMC/MIC ([8]; C. albicans): 1
MMC ([8]; C. albicans, sub-culturing after broth microdilution): 8 µg/mL
MIC ([8]; Candida albicans, ATCC10231): 8 µg/mL (≈ 28.1 µM)
Interpretation (of FIC index) (S. aureus): Synergistic (FIC ≤ 0.5: synergistic effect)
FIC (fractional inhibitory concentration index) (S. aureus; checkerboard): 0.375
FICEx / FIC2 / FIC5 (MIC of extract/compound tested in combination/MIC of extract/compound tested alone) (S. aureus; checkerboard): 0.125
FICA (MIC of antibiotic tested in combination/MIC of antibiotic tested alone) (S. aureus; checkerboard, 24 h at 37 °C): 0.25
Interpretation (of FIC index) (C. albicans): Synergistic (FIC ≤ 0.5: synergistic effect)
FIC (fractional inhibitory concentration index) (C. albicans; checkerboard): 0.125
FICEx / FIC2 / FIC5 (MIC of extract/compound tested in combination/MIC of extract/compound tested alone) (C. albicans; checkerboard): 0.0625
FICA (MIC of antibiotic tested in combination/MIC of antibiotic tested alone) (C. albicans; checkerboard, 24 h at 37 °C): 0.0625
MMC/MIC ([9]; MSSA01): 2
MMC ([9]; MSSA01, sub-culturing after broth microdilution): 32 µg/mL
MIC ([9]; Staphylococcus aureus): 16 µg/mL (≈ 56.3 µM)
respiratory chain dehydrogenase activity (TPF formed) [10]: significant decrease in the TPF formed
MMC/MIC ([11]; S. aureus): 1
MMC ([11]; S. aureus, sub-culturing after broth microdilution): 8 µg/mL
MIC ([11]; Staphylococcus aureus, ATCC25923): 8 µg/mL (≈ 28.1 µM)
Interpretation (of FIC index) (S. flexneri [12]): Synergistic (FIC ≤ 0.5: synergistic effect)
FIC (fractional inhibitory concentration index) (S. flexneri [12]; checkerboard): 0.281
FICEx / FIC2 / FIC5 (MIC of extract/compound tested in combination/MIC of extract/compound tested alone) (S. flexneri [12]; checkerboard): 0.25
FICA (MIC of antibiotic tested in combination/MIC of antibiotic tested alone) (S. flexneri [12]; checkerboard, 24 h at 37 °C): 0.031
appearance of reducing sugar in the bacterial culture suspension (P. aeruginosa [13]): increased
Gallic acid equivalent antioxidant capacity (GEAC) [14]: 104.87 ± 1.43 μg/mL and 106.03 ± 0.87^d μg/mL
leakage of biological material absorbing at 260 and 280 nm (P. aeruginosa [15]): induced leakage
MMC/MIC ([16]; C. neoformans): 1
MMC ([16]; C. neoformans, sub-culturing after broth microdilution): 8 µg/mL
MIC ([16]; Cryptococcus neoformans, H99): 8 µg/mL (≈ 28.1 µM)
Interpretation (of FIC index) (P. aeruginosa [17]): Synergistic (FIC ≤ 0.5: synergistic effect)
FICEx / FIC2 / FIC5 (MIC of extract/compound tested in combination/MIC of extract/compound tested alone) (P. aeruginosa [17]; checkerboard): 0.125
FICA (MIC of antibiotic tested in combination/MIC of antibiotic tested alone) (P. aeruginosa [17]; checkerboard, 24 h at 37 °C): 0.125

Triton X-100
lysis of RBCs (red blood cells (RBCs)): 100%
